# Assay results from PubChem BioAssay (NCI).
#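 Compound exposure: 48 hours, 5 concentrations, 96-well plates. TGI denotes the concentration required for complete inhibition of growth.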
# Experiments:
# Test in all cases: NCI-60 cell line screen, 48 h
# SK-MEL-5 melanoma = system: SK-MEL-5 melanoma
# OVCAR-4 ovarian = system: OVCAR-4 ovarian
# HS 578T breast = system: HS 578T breast
# HL-60(TB) leukemia = system: HL-60(TB) leukemia
# SF-295 CNS = system: SF-295 CNS
# MDA-N = system: MDA-N
# BT-549 breast = system: BT-549 breast
# SNB-19 CNS = system: SNB-19 CNS
# K-562 leukemia = system: K-562 leukemia
# M14 melanoma = system: M14 melanoma
# NCI-H23 lung = system: NCI-H23 lung
# COLO 205 colon = system: COLO 205 colon
# HT29 colon = system: HT29 colon
# MALME-3M melanoma = system: MALME-3M melanoma
# UO-31 renal = system: UO-31 renal
# OVCAR-5 ovarian = system: OVCAR-5 ovarian
# MCF7 breast = system: MCF7 breast
# CCRF-CEM leukemia = system: CCRF-CEM leukemia
# NCI-H522 lung = system: NCI-H522 lung
# LOX IMVI melanoma = system: LOX IMVI melanoma
# SN12C renal = system: SN12C renal
# A498 renal = system: A498 renal
# CAKI-1 renal = system: CAKI-1 renal
# HCT-116 colon = system: HCT-116 colon
# MDA-MB-231 breast = system: MDA-MB-231 breast
# TK-10 renal = system: TK-10 renal
# UACC-62 melanoma = system: UACC-62 melanoma
# EKVX NSCLC = system: EKVX NSCLC
# A549 NSCLC = system: A549 NSCLC
# KM12 colon = system: KM12 colon
# PC-3 prostate = system: PC-3 prostate
# HCC-2998 colon = system: HCC-2998 colon
# NCI-H226 lung = system: NCI-H226 lung
# NCI-H460 lung = system: NCI-H460 lung
# HOP-62 NSCLC = system: HOP-62 NSCLC
# ACHN renal = system: ACHN renal
# OVCAR-3 ovarian = system: OVCAR-3 ovarian
# OVCAR-8 ovarian = system: OVCAR-8 ovarian
# NCI/ADR-RES ovarian = system: NCI/ADR-RES ovarian
# HOP-92 NSCLC = system: HOP-92 NSCLC
# SF-268 CNS = system: SF-268 CNS
# RXF 393 renal = system: RXF 393 renal
# DU-145 prostate = system: DU-145 prostate
# 786-0 renal = system: 786-0 renal
# SW-620 colon = system: SW-620 colon
# MOLT-4 leukemia = system: MOLT-4 leukemia
# MDA-MB-435 = system: MDA-MB-435
# SK-MEL-28 melanoma = system: SK-MEL-28 melanoma
# SR leukemia = system: SR leukemia
# IGROV1 ovarian = system: IGROV1 ovarian
# UACC-257 melanoma = system: UACC-257 melanoma
# U251 CNS = system: U251 CNS
# T-47D breast = system: T-47D breast
# SK-OV-3 ovarian = system: SK-OV-3 ovarian
# HCT-15 colon = system: HCT-15 colon
smiles,measurement,setting,value
Br[C@@H]1[C@H]2c3nc4ccccc4nc3[C@@H]1C[C@H]2Br,TGI,SK-MEL-5 melanoma,69.5 µM
same,TGI,OVCAR-4 ovarian,> 100 µM
same,TGI,HS 578T breast,> 100 µM
same,TGI,HL-60(TB) leukemia,> 100 µM
same,TGI,SF-295 CNS,> 100 µM
same,TGI,MDA-N,> 100 µM
same,TGI,BT-549 breast,> 100 µM
same,TGI,SNB-19 CNS,> 100 µM
same,TGI,K-562 leukemia,> 100 µM
same,TGI,M14 melanoma,> 100 µM
same,TGI,NCI-H23 lung,> 100 µM
same,TGI,COLO 205 colon,> 100 µM
same,TGI,HT29 colon,> 100 µM
same,TGI,MALME-3M melanoma,> 100 µM
same,TGI,UO-31 renal,> 100 µM
same,TGI,OVCAR-5 ovarian,> 100 µM
same,TGI,MCF7 breast,> 100 µM
same,TGI,CCRF-CEM leukemia,> 100 µM
same,TGI,NCI-H522 lung,> 100 µM
same,TGI,LOX IMVI melanoma,> 100 µM
same,TGI,SN12C renal,> 100 µM
same,TGI,A498 renal,> 100 µM
same,TGI,CAKI-1 renal,> 100 µM
same,TGI,HCT-116 colon,> 100 µM
same,TGI,MDA-MB-231 breast,> 100 µM
same,TGI,TK-10 renal,> 100 µM
same,TGI,UACC-62 melanoma,> 100 µM
same,TGI,EKVX NSCLC,> 100 µM
same,TGI,A549 NSCLC,> 100 µM
same,TGI,KM12 colon,> 100 µM
same,TGI,PC-3 prostate,> 100 µM
same,TGI,HCC-2998 colon,> 100 µM
same,TGI,NCI-H226 lung,86.2 µM
same,TGI,NCI-H460 lung,> 100 µM
same,TGI,HOP-62 NSCLC,> 100 µM
same,TGI,ACHN renal,> 100 µM
same,TGI,OVCAR-3 ovarian,> 100 µM
same,TGI,OVCAR-8 ovarian,> 100 µM
same,TGI,NCI/ADR-RES ovarian,> 100 µM
same,TGI,HOP-92 NSCLC,> 100 µM
same,TGI,SF-268 CNS,> 100 µM
same,TGI,RXF 393 renal,94.6 µM
same,TGI,DU-145 prostate,> 100 µM
same,TGI,786-0 renal,> 100 µM
same,TGI,SW-620 colon,> 100 µM
same,TGI,MOLT-4 leukemia,> 100 µM
same,TGI,MDA-MB-435,> 100 µM
same,TGI,SK-MEL-28 melanoma,> 100 µM
same,TGI,SR leukemia,> 100 µM
same,TGI,IGROV1 ovarian,> 100 µM
same,TGI,UACC-257 melanoma,> 100 µM
same,TGI,U251 CNS,> 100 µM
same,TGI,T-47D breast,> 100 µM
same,TGI,SK-OV-3 ovarian,> 100 µM
same,TGI,HCT-15 colon,> 100 µM
